Experiment [1] deals with tyrosine hydroxylase (TH). The experiment can be described thus: TH-ser40 phosphorylation in primary mesencephalic neurons (immunofluorescence). The format is cell-based, mouse. The settings on record: PKCδ (+/+) primary neuronal cultures, 3 μM rottlerin for 3 hr. On the procedure:
PC12 and N27 cells were cultured as described earlier (Anantharam et al., 2002; Kaul et al., 2003). Briefly, cells were grown in RPMI 1640 medium containing 10% fetal bovine serum, 2 mM L-glutamine, 50 units of penicillin, and 50 μg/ml streptomycin. Cells were maintained in a humidified atmosphere of 5% CO2 at 37° C. N27 cells were differentiated with 2 mM dibutyryl cAMP for 3-5 days and then used for experiments described below. Primary mesencephalic neuronal cultures were prepared from the ventral mesencephalon of gestational 16-18-day-old mice embryos as described previously (Yang et al., 2004). Mesencephalic tissues were dissected and maintained in ice-cold Ca^2+-free HESS and then dissociated in HBSS solution containing trypsin-EDTA (0.25%) for 20 min at 37° C. The dissociated cells were then plated at equal density (0.5×10^6 cells) in 30-mm-diameter tissue culture wells precoated with poly-L-lysine (1 mg/ml). […]
Plasmid pPKCδ^K376R-V5 encodes the loss of function PKCδ-V5 epitope tagged mutant protein; K376R refers to the mutation of the lysine residue at position 376 to arginine in the catalytic site resulting in inactivation of the kinase. […] Transfection efficiency was >75% as determined by immunostaining of V5-expression. […]

Experiment [2] deals with tyrosine hydroxylase (TH). Description: TH activity (DOPA levels after NSD-1015) in N27 cells. The format is cell-based, rat. The settings on record: 2 mM NSD-1015, rottlerin 3 hr vs DMSO, PKCδ-DN vs LacZ. On the procedure:
Plasmid pPKCδ^K376R-V5 encodes the loss of function PKCδ-V5 epitope tagged mutant protein; K376R refers to the mutation of the lysine residue at position 376 to arginine in the catalytic site resulting in inactivation of the kinase. Plasmid pLacZ-V5 encodes the β-galactosidase protein alone with a V5-epitope and is used as a vector control. N27 cells stably expressing PKCδ^K376R-V5 (herein referred to as PKCδ-DN cells) and LacZ alone-expressing cells (LacZ cells) were cultured as described previously (Kitazawa et al., 2005). PKCδ-DN or LacZ expressing N27 cells were identified by immunostaining of the C-terminal V5 epitope on expressed proteins and were differentiated with cAMP analogs (e.g. dibutyral cAMP) prior to experiments. PKCδ-DN and LacZ were also transiently expressed in mouse primary mesencephalic neurons using an AMAXA® Nucleofector™ kit (AMAXA GmbH, Germany). As described above, primary mesencephalic neurons were prepared from the midbrain of 16-18-day-old mice embryos. After digestion with trypsin-EDTA-HBSS, the primary neurons were homogenously resuspended with transfection buffer provided with the kit to a final concentration of 4-5×10^6 neurons/100 μl and mixed with 1 μg plasmid DNA encoding either PKCδ-DN-V5 or LacZ-V5. […] Transfection efficiency was >75% as determined by immunostaining of V5-expression. […]

A further experiment concerns PKCα or PKCβ. The settings on record: cited from earlier work.
Another experiment concerns casein kinase II. As to conditions: cited from earlier work.
Experiment [3] relates to bone marrow-derived macrophages. The settings on record: cited from earlier work.
Experiment [4] relates to MPTP-treated C57 black mice. Description: Locomotor activity of MPTP-treated mice (VersaMax). The experiment is classed as in vivo. The settings on record: rottlerin 20 mg/kg + MPTP 30 mg/kg 5 days. The source says: Behavioral data were collected using VersaMax Animal Activity Monitors (AccuScan Model RXYZCM-16, Columbus, Ohio). Each chamber was 40×40×30.5 cm^3, made of clear Plexiglas and covered with a Plexiglas lid with air-holes. Infrared monitoring sensors were located every 2.54 cm along the perimeter (16 infrared beams along each side) and 2.5 cm above the floor. Two additional sets of 16 sensors were located 8.0 cm above the floor on opposite sides. Data were collected and analyzed by a VersaMax Analyzer (AccuScan Model CDA-8, Columbus, Ohio) which in turn sent information to an IBM computer where it was stored for future analyses. Locomotor activity was presented as horizontal movement and vertical movement. All data are expressed as percent of the vehicle-treated control group (mean 6 SEM) and were obtained 1 day after MPTP or vehicle treatment in a 20-min test session.

Another experiment has as its system 3T3 cells. As to conditions: zinc deficient medium; cited from earlier work.

Molecules are shown by their SMILES.

Consider 1 compound from patent publication US8653023B1, “Dual beneficial effect of dopamine enhancing and neuroprotective actions of PKC delta inhibitors for treatment of Parkinson's disease” (Iowa State University Research Foundation, Inc., priority 2006, dated 2014).

For the compound `CC(=O)c1c(O)c(C)c(O)c(Cc2c(O)c3c(c(C(=O)/C=C/c4ccccc4)c2O)OC(C)(C)C=C3)c1O` [rottlerin], the “TH-ser40 fluorescent intensity, increase” value in experiment [1] stood at 4 fold. The same compound yielded a TH activity in experiment [2] of 3025±266.7 pg DOPA/10^6 cells/hr. Further, the “fold more potent on PKCδ than on PKCα or PKCβ” value in the experiment on PKCα or PKCβ was 5- to 10 fold. For the same compound, in the experiment with casein kinase II, the inhibition entry is on record as “weak inhibitor”. Also, in experiment [3], the “silica-induced apoptosis as measured by DNA fragmentation” value is “reduced”. For the same compound, in experiment [4], the “horizontal movement, percent of vehicle-treated control” value came out at 76.93% and the “vertical movement, percent of vehicle-treated control” value is 79%. In addition, in the experiment on 3T3 cells, the cell number entry is given as “restored” and the “proteolysis of PKC-delta, activated caspase-3” value is “reduced or eliminated”.
